Patent US20110098177A1, “METHODS AND COMPOSITIONS OF PLANT MICRONUTRIENTS” (NOVUS INTERNATIONAL INC., priority 2006, published 2011)
Like-named read-outs stand apart in the source and are kept apart here. Marks after values point to notes of the source that are not given here.

Assays:
Assay type in all cases: in vivo
Aristotle bell pepper [1] = conditions: 1 week after treatment, scale 0 = no visible injury, 10 = plant death
How it was run: (§1)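 Florida-47 tomato and Aristotle bell pepper transplants in 2-gal pots with low-nutrient medium (pH 5.36), drip-irrigated; products at three rates in deionized water plus non-ionic surfactant sprayed on newly matured leaves at 3 and 7 WAT. Toxicity scored at 4 WAT (0=no damage, 10=death); foliar tissue analysed at 6 WAT; marketable fruit harvested 4 times (tomato).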

Florida-47 tomato [2] = conditions: 1 week after treatment, scale 0 = no visible injury, 10 = plant death
How it was run: as §1

Florida-47 tomato [3] = assay: Marketable yield per plant, greenhouse Fall 2007, tomato
Protocol: (§2) The following experiments were performed in a green house during the fall of 2007 at GCREC, Balm, University of Florida. Fifteen products, at 3 different application rates were examined. The plot size was 2-gallon pots. Crop set-up, procedures and variables were as follows.
(§3) Transplants of ‘Florida-47’ tomato and ‘Aristotle’ bell pepper plants in the 4-true leaf stage (about 6 inches tall) were planted in 2-gal pots on Aug. 27, 2007. Pots were filled with a commercially available planting medium. This medium was selected based on the mineral composition of the products to be applied without providing significant nutritional inputs to the crops. Irrigation was provided with drip lines delivering between 0.50 and 0.33 gal/day/pot for tomato and bell pepper, respectively, and the crops were irrigated three times per day. No foliar pesticides were necessary.
(§4) There were four control treatments corresponding to each target micronutrient in which non-Fe, non-Mn, non-Zn or non-Cu pots received all other essential nutrients under non-limiting conditions.
(§5) Treatments were applied at three rates (high, medium and low) obtained from the estimated concentration of Zn, Fe, Cu, and Mn foliarly-applied in tomato and bell pepper in field situations (Table 1). Products were weighed and dissolved in 200 ml of deionized water with a non-ionic surfactant and applied to the newly-matured open leaves of each crop at 3 and 7 weeks after transplant (WAT). Treated pots were isolated during application to avoid cross-contamination of other treatments.
(§6) Medium nutrient concentration was determined 1 week before treatment. The mineral composition of the medium was 26.8 ppm NH4—N, 49 ppm NO3—N, 15.8 ppm P, 91.2 ppm K, 82.3 ppm Ca, 58.2 ppm Mg, 23.9 ppm Na, 125.6 ppm S, 1.33 ppm Fe, 0.39 ppm Mn, 0.35 ppm Zn, 0.05 pp, Cu, 0.04 ppm B, 0 ppm Mo, 0.73 ppm Al, and 12.1 ppm Si. The pH of the medium was 5.36 and the electric conductivity was 1.38 mS/cm. The foliar tissue analysis was performed at 6 WAT and the concentration of N, P, K, Mg, Ca, S, B, Zn, Mn, Fe, and Cu was determined by a commercial laboratory. Plant toxicity was determined at 4 WAT by using a 0-10 visual scale, where 0=no visible damage and 10=total plant death. Marketable fruit weight was collected 2 times in bell pepper and 4 times in tomato following USDA standards.
(§7) Data were analyzed using a general linear model, and means were separated using orthogonal contrasts at the 5% significance level.

Aristotle bell pepper [4] = assay: Marketable yield per plant, greenhouse Fall 2007, bell pepper
Protocol: as §2, §3, §4, §5, §6, §7

Tygress tomato plants [5] = assay: Foliar nutrient concentration at 7 WAT, greenhouse tomato spring 2009 (Examples 13-15); conditions: 7 WAT
Protocol: (§8) The following experiments were performed in a green house during the spring of 2009 at GCREC, Balm, University of Florida. Crop set-up, procedures and variables were as follows.
(§9) Transplants of ‘Tygress’ tomato plants were planted in 2-gallon pots filled with commercial planting medium with nutrient concentration of Fe, Zn, Mn, Cu being negligible and insufficient for crop growth. Irrigation and non-micronutrient fertilizer were provided daily through microsprinklers at recommended rates for tomato production in Florida. No pesticides were used. Treatments were as described in Tables 42, 43, and 44 below. BIOX-Cu was compared to Cu-sulfate, BIOX-EDC, and BIOX-O; and BIOX-Fe was compared to Fe-sulfate and BIOX-EDF. BIOX-MEZ is Ca-HMTBA.
(§10) Treatments were applied at 6 WAT (weeks after transplanting) using a water volume of 200 mL/plant. Deionized water was used for foliar applications. A non-ionic surfactant was added. Other nutrients were applied as appropriate under non-limiting conditions.
Foliar tissue nutrient analysis was performed at 3 WAT (i.e., 3 weeks before treatment) and 7 WAT (i.e., 1 weeks after treatment) on the non-applied newest leaves. The concentrations of N, P, K, Mg, Ca, B, Zn, Mn, Fe, and Cu in the foliar tissue were determined by a commercial laboratory. There were no significant differences between the foliar nutrient concentrations of any of the treatment groups prior to treatment.
(§11) Experimental design was a randomized complete block design with 6 replications. Data were analyzed using a general linear model, and means were separated using an LSD test at the 5% significance level.

Tygress tomato plants [6] = assay: Yields of tomato fruits, greenhouse spring 2009 (Examples 13-15)
Protocol: as §8, §9, §10
Marketable fruit were collected three times during the growing season, starting at 10 WAT (4 weeks after the initial treatment). Tomato fruit was graded as marketable and non-marketable. Marketable fruit was sized as extra-large, large, and medium. Non-marketable fruit were harvested and number and weight recorded but not sized.
as §11

Tygress tomato plants [7] = conditions: for Toxicity (0-10): 0=no injury, 10=plant death
Protocol: as §8, §9, §10
Toxicity of the treatments was assessed by rating foliar tissue using a visual scale, where 0=no injury and 10=plant death.
as §11

[8] = foliar application at 3 and 7 WAT, rates not separated

CSCCC(O)C(=O)[O-].CSCCC(O)C(=O)[O-].[Ca+2] (stereo not shown) [BIOX-MEZ, Ca-HMTBA]
Pepper toxicity (Aristotle bell pepper [1]; High rate): 0 | Pepper toxicity (Aristotle bell pepper [1]; Low rate): 0 | Pepper toxicity (Aristotle bell pepper [1]; Medium rate): 0 | Tomato toxicity (Florida-47 tomato [2]; High rate): 0 | Tomato toxicity (Florida-47 tomato [2]; Low rate): 0 | Tomato toxicity (Florida-47 tomato [2]; Medium rate): 0 | Marketable yield per plant, Tomato (Florida-47 tomato [3]; [8]): 3.0* lb/plant | Tomato yield compared with control (in words) (Florida-47 tomato [3]; foliar applications, P<0.05): significantly increased | Marketable yield per plant, Pepper (Aristotle bell pepper [4]; [8]): 3.2* lb/plant | Bell pepper yield compared with control (in words) (Aristotle bell pepper [4]; foliar applications, P<0.05): significantly increased | Nutrient concentration in tomato leaves: Ca (Tygress tomato plants [5]; 0.6 lb/acre): 1.3 b % | Nutrient concentration in tomato leaves: K (Tygress tomato plants [5]; 0.6 lb/acre): 3.8% | Nutrient concentration in tomato leaves: Mg (Tygress tomato plants [5]; 0.6 lb/acre): 0.6% | Nutrient concentration in tomato leaves: N (Tygress tomato plants [5]; 0.6 lb/acre): 3.8% | Nutrient concentration in tomato leaves: P (Tygress tomato plants [5]; 0.6 lb/acre): 0.6% | Nutrient concentration in tomato leaves: Ca (Tygress tomato plants [5]; 1.2 lb/acre): 1.3 b % | Nutrient concentration in tomato leaves: K (Tygress tomato plants [5]; 1.2 lb/acre): 4.4% | Nutrient concentration in tomato leaves: Mg (Tygress tomato plants [5]; 1.2 lb/acre): 0.6% | Nutrient concentration in tomato leaves: N (Tygress tomato plants [5]; 1.2 lb/acre): 4.2% | Nutrient concentration in tomato leaves: P (Tygress tomato plants [5]; 1.2 lb/acre): 0.7% | Nutrient concentration in tomato leaves: Ca (Tygress tomato plants [5]; 2.5 lb/acre): 1.3 b % | Nutrient concentration in tomato leaves: K (Tygress tomato plants [5]; 2.5 lb/acre): 3.9% | Nutrient concentration in tomato leaves: Mg (Tygress tomato plants [5]; 2.5 lb/acre): 0.5% | Nutrient concentration in tomato leaves: N (Tygress tomato plants [5]; 2.5 lb/acre): 4.4% | Nutrient concentration in tomato leaves: P (Tygress tomato plants [5]; 2.5 lb/acre): 0.7% | Nutrient concentration in tomato leaves: Ca (Tygress tomato plants [5]; 4.8 lb/acre): 1.2 b % | Nutrient concentration in tomato leaves: K (Tygress tomato plants [5]; 4.8 lb/acre): 3.9% | Nutrient concentration in tomato leaves: Mg (Tygress tomato plants [5]; 4.8 lb/acre): 0.6% | Nutrient concentration in tomato leaves: N (Tygress tomato plants [5]; 4.8 lb/acre): 3.8% | Nutrient concentration in tomato leaves: P (Tygress tomato plants [5]; 4.8 lb/acre): 0.6% | Nutrient concentration in tomato leaves: Ca (Tygress tomato plants [5]; 7.2 lb/acre): 1.7 a % | Nutrient concentration in tomato leaves: K (Tygress tomato plants [5]; 7.2 lb/acre): 4.6% | Nutrient concentration in tomato leaves: Mg (Tygress tomato plants [5]; 7.2 lb/acre): 0.6% | Nutrient concentration in tomato leaves: N (Tygress tomato plants [5]; 7.2 lb/acre): 4.7% | Nutrient concentration in tomato leaves: P (Tygress tomato plants [5]; 7.2 lb/acre): 0.7% | Foliar Ca concentration, statement (Tygress tomato plants [5]; BIOX-MEZ at a rate of 7.2 lb/acre): significantly increased | Foliar levels of N, P, K, and Mg, statement (Tygress tomato plants [5]; BIOX-MEZ treatment): not affected | Marketable yield (Tygress tomato plants [6]; 0.6 lb/acre): 1100 g/plant | Marketable yield (Tygress tomato plants [6]; 1.2 lb/acre): 875 g/plant | Marketable yield (Tygress tomato plants [6]; 2.5 lb/acre): 925 g/plant | Marketable yield (Tygress tomato plants [6]; 4.8 lb/acre): 1000 g/plant | Marketable yield (Tygress tomato plants [6]; 7.2 lb/acre): 900 g/plant | Marketable or non-marketable yields, statement (Tygress tomato plants [6]; BIOX-MEZ treatment): no change in marketable or non-marketable yields | Toxicity (0-10) (Tygress tomato plants [7]; 0.6 lb/acre): 0 | Toxicity (0-10) (Tygress tomato plants [7]; 1.2 lb/acre): 0 | Toxicity (0-10) (Tygress tomato plants [7]; 2.5 lb/acre): 1 | Toxicity (0-10) (Tygress tomato plants [7]; 4.8 lb/acre): 1 | Toxicity (0-10) (Tygress tomato plants [7]; 7.2 lb/acre): 1 | Toxic effects on the tomato plants, statement (Tygress tomato plants [7]; BIOX-MEZ application): no major toxic effects
